# In patent US9932339B2, “Helquats with heteroaromatic substituents, preparation thereof, and use thereof as G-quadruplex stabilizers” (USTAV ORGANICKE CHEMIE A BIOCHEMIE AV CR, V.V.I., priority 2014, dated 2018):
# What was measured:
# [1] = Phase II clinical trials; cited from earlier work
# [2] = tested on: c-Myc27 oligonucleotide G-quadruplex; assay: ECD melting curve of c-Myc27 oligonucleotide G-quadruplex with ligands; type: binding; details: ECD at 263 nm; molar ratio oligonucleotide:ligand 1:1 (5 μmol l^−1 each); Li+-cacodylate buffer
# Procedure: ECD spectra were measured on J-815 spectrometer (Jasco, Japan). Measurement settings (Tab. 3), spectra saving and background subtraction was performed in a Spectra Manager software (Jasco, Japan).
# For measurement of the temperature dependencies the cuvettes in the cuvette compartment were placed in the Peltier module, the temperature was controlled by the Spectra Manager software. Melting curves were measured at a wavelength which corresponds to the maximum difference in signal intensity of ECD spectra of oligonucleotide at 25 and 95° C., as shown in FIG. 1. Before and after measuring the melting curves, ECD spectra in extreme temperatures were measured, in order to verify the stability of the studied system.
# Processing of the spectra was performed using Spectra Manager (Jasco, Japan). The resulting spectra were obtained from the measured sample spectrum after subtraction of background spectrum, which was spectrum of the solvent. Measuring of sample spectrum and background was conducted under identical conditions. ECD spectra are reported as ellipticity, labeled in the CD figures [mdeg], whose numerical value is associated with dimensionless circular dichroism ΔA (CDv=32980 ΔAv). This CD notations preserves conventions of the international journals in which articles from the field are published.
# Stock solution of […] was prepared from c-Myc27 oligonucleotide by dissolution in H2O. The cuvette of 1 mm thickness was filled with 7 μl of oligonucleotide solution and 133 μl of Li^+-cacodylate buffer. Oligonucleotide solution in the cuvette was overlayed with mineral oil to measure temperature dependencies without concentration changes due to evaporation of the solvent at higher temperatures.
# From stock solutions of the racemic ligands in DMSO at a concentration of […] solutions were prepared at a concentration of 140 μmol l^−1 by dissolving in H2O. Ligands were added to the solution of oligonucleotide under buffer/mineral oil interface using Hamilton microsyringe (5 μl of solution at a concentration of […]). The resulting molar ratio of oligonucleotide:ligand was 1:1.
# The cuvette filled with c-Myc27 oligonucleotide solution in Li^+-cacodylate buffer (cc-Myc27=5 μmol l^−1) was first heated for 5 minutes at 95° C., at this temperature ECD spectrum was measured. Then the sample was cooled to 25° C., allowed to stabilize for 10 min and then ECD spectrum was measured again. Then, the melting curve of ECD oligonucleotide at 263 nm was measured in the temperature range 25-95° C. and for verification of the stability of the sample spectra the spectra were measured again at 95 and 25° C. Under the oil layer ligand solution (cligand=5 μmol l^−1) was added to a solution of oligonucleotide, the sample was thoroughly mixed and ECD spectrum measured at 25° C., the melting curve was obtained and again control spectra were measured at 95 and 25° C.
# Decomposition of the G-quadruplex structure in the presence of ligands under influence of temperature was monitored at the wavelength corresponding to the maximum difference in signal intensities of ECD oligonucleotide/ligand at 25 and 95° C., i.e. at 263 nm. Thermal stability of G-quadruplex was monitored in the range of 25 to 95° C. and in a molar ratio of oligonucleotide:ligand=1:1. Example of influence of the studied ligand on the stability of G-quadruplex formed from c-Myc27 oligonucleotide is shown in FIG. 2.
# The degree of G-quadruplex stabilization was expressed as change of melting temperature caused by the presence of G-quadruplex ligands (ΔTm): ΔTm=Tm,oligonucleotide+ligand−Tm,oligonucleotide (1), • where Tm,oligonucleotide+ligand is melting temperature of molecular system comprising the oligonucleotide and the ligand and Tm,oligonucleotide, the melting temperature of the oligonucleotide itself. Tab. 4 summarizes the changes in melting temperatures of c-Myc27 oligonucleotide G-quadruplex in the presence of studied ligands.
# [3] = tested on: G-quadruplex oligonucleotide F21T (human telomere); assay: FRET melting of G-quadruplex oligonucleotide F21T with ligands; type: binding; details: for ΔTm (° C.) F21T/ds26: helquat 1 μmol·l^−1, oligonucleotide 0.2 μmol·l^−1, 50-fold excess of double-stranded competitor ds26; for ΔTm (° C.) F21T: helquat 1 μmol·l^−1, oligonucleotide 0.2 μmol·l^−1, without competitor
# [4] = tested on: G-quadruplex oligonucleotide Fmyc27T (NHE III1 promoter region of c-myc oncogene); assay: FRET melting of G-quadruplex oligonucleotide Fmyc27T with ligands; type: binding; details: for ΔTm (° C.) Fmyc27T/ds26 (° C.): helquat 1 μmol·l^−1, oligonucleotide 0.2 μmol·l^−1, 50-fold excess of double-stranded competitor ds26; for ΔTm (° C.) Fmyc27T: helquat 1 μmol·l^−1, oligonucleotide 0.2 μmol·l^−1, without competitor
# G-quadruplex = details: background statement; cited from earlier work
SMILES,bioavailability [1],ΔTm (° C.) [2] [°C],ΔTm (° C.) F21T/ds26 [3] [°C],ΔTm (° C.) F21T [3] [°C],ΔTm (° C.) Fmyc27T/ds26 (° C.) [4] [°C],ΔTm (° C.) Fmyc27T [4] [°C],selectivity towards G-quadruplex in presence of DNA duplex (G-quadruplex)
CN1CCC[C@H]1CCNC(=O)c1cn2c3c(c(N4CCC(c5cnccn5)C4)c(F)cc3c1=O)Oc1cc3ccccc3cc1-2 (some centres unmarked) [quarfloxin],poor bioavailability,,,,,,
"Cc1[nH]c2ccccc2c1/C=C/c1cc[n+]2c(c1)-c1c(ccc3c1-c1cc(/C=C/c4c(C)[nH]c5ccccc45)cc[n+]1CC3)CC2.O=S(=O)([O-])C(F)(F)F.O=S(=O)([O-])C(F)(F)F [PDA-C10-11, 2,15-bis((E)-2-(2-methyl-1H-indol-3-yl)vinyl)-6,7,10,11-tetrahydrodipyrido[2,1-a:1′,2′-k][2,9]phenanthroline-5,12-diium trifluoromethanesulfonate]",,8.2,12.3,12.9,13.9,14.9,
"Brc1ccc2[nH]cc(/C=C/c3cc[n+]4c(c3)-c3c(ccc5c3-c3cccc[n+]3CC5)CC4)c2c1.O=S(=O)([O-])C(F)(F)F.O=S(=O)([O-])C(F)(F)F [LSA-C9-30, (E)-2-(2-(5-bromo-1H-indol-3-yl)vinyl)-6,7,10,11-tetrahydrodipyrido[2,1-a:1′,2′-k][2,9]phenanthroline-5,12-diium trifluoromethanesulfonate]",,6.4,5.5,8.6,8.2,10.5,
"C(=C\c1c(-c2ccccc2)[nH]c2ccccc12)/c1cc[n+]2c(c1)-c1c(ccc3c1-c1cc(/C=C/c4c(-c5ccccc5)[nH]c5ccccc45)cc[n+]1CC3)CC2.O=S(=O)([O-])C(F)(F)F.O=S(=O)([O-])C(F)(F)F [PDA-C15-8, 2,15-bis((E)-2-(2-phenyl-1H-indol-3-yl)vinyl)-6,7,10,11-tetrahydrodipyrido[2,1-a:1′,2′-k][2,9]phenanthroline-5,12-diium trifluoromethanesulfonate]",,10.1,17.3,17.2,19.9,18.8,
C[n+]1ccc(-c2c3nc(c(-c4cc[n+](C)cc4)c4ccc([nH]4)c(-c4cc[n+](C)cc4)c4ccc([nH]4)c(-c4cc[n+](C)cc4)c4nc2C=C4)C=C3)cc1 [TMPyP4],,,,,,,low selectivity
